Values quoted from earlier work in paper PMC5948259, “A phase I study to assess the mass balance, excretion, and pharmacokinetics of [^14C]-ixazomib, an oral proteasome inhibitor, in patients with advanced solid tumors” (Investigational New Drugs, 2017).

Design: method as in PMID 25011071
Conditions: patients with MM; cited from earlier work

SMILES: CC(C)C[C@H](NC(=O)[C@H](Cc1ccccc1)NC(=O)c1cnccn1)B(O)O [bortezomib]
- Concentrations in whole blood higher than those observed in plasma: 3 fold
